Assay results: publication PMC10331583, “Control of fibrosis with enhanced safety via asymmetric inhibition of prolyl‐tRNA synthetase 1” (EMBO Molecular Medicine, 2023)
“And” between values parts separate entries of the source, which are not always exact repeats. Equal entries are not always repeated.

Columns and labels:
PARS1 WT = target: T1, PARS1 WT (Homo sapiens, UniProt P07814); assay: Microscale thermophoresis (MST), PARS1 WT; type: binding; conditions: for Fraction bound: single replicates
T1 construct: His‐PARS1 (1001–1,512 aa); made in house; host or cells: Escherichia coli
T1 sequence (P07814 1001-1512 limits assumed): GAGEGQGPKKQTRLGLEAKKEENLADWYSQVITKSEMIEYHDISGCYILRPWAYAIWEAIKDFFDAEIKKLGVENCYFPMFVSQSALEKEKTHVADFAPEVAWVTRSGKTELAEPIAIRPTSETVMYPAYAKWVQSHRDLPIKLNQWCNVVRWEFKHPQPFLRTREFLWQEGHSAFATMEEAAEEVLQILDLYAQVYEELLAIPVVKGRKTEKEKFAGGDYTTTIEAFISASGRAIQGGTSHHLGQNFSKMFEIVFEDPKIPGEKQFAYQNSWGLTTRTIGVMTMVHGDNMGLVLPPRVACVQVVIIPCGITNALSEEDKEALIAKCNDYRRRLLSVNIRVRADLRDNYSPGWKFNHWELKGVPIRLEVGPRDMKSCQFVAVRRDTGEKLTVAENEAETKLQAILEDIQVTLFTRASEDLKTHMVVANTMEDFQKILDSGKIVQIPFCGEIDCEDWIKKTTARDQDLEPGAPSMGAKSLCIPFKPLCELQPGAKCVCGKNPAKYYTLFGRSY

C57BL/6 mice = assay: Bleomycin‐induced lung fibrosis, therapeutic model 1 (compounds from a week after bleomycin); type: in vivo; conditions: for BALF total cell count, average / BALF total cell count, single animal / Collagen contents, average / Collagen contents, single animal / Fibrotic area, average / Fibrotic area, single animal / SpO2, average / SpO2, single animal: BLM +
Protocol: To examine therapeutic efficacy of DWN12088, all experiments were conducted following the international guidelines on the ethical use of experimental animals and approved by the Institutional Animal Care and Use Committee of Daewoong Pharmaceutical (IACUC‐21‐014). C57BL/6 mice (7–8‐week‐old, male, obtained from Orient Bio) were anesthetized with Zoletil and injected intratracheally with 100 μl bleomycin (2 units/kg) (Merck, B8416) to induce lung fibrosis. A group of disease‐free mice (“untreated”) were injected with PBS instead of bleomycin. After a week, mice treated with bleomycin were randomized to (i) vehicle (saline), (ii) HF 0.05 mg/kg, (iii) HF 0.1 mg/kg, and (iv) DWN12088 10 mg/kg groups (n = 5 for each group) according to their body weight. The drugs were orally administered once daily for 2 weeks, and then the outcome was analyzed. For the experiments testing the effect of the compounds 2 weeks after bleomycin challenge, the experiment was approved by IACUC of Daewoong Pharmaceutical (IACUC‐22‐009). The experimental procedures were performed following the methods described previously, with the exception that the compounds were administered 2 weeks after bleomycin challenge. The experiments were conducted as non‐blind tests.
Mice were anesthetized with Zoletil for 10 min, and a portable mouse pulse oximeter (Veterinary Pulse Oximeter, Berry Electronic) was placed on each mouse's body. The measurements were continued to allow the recording of 3 min of a stable signal.
The collagen contents of lung tissues were measured using Sircol™ soluble collagen assay (Biocolor Ltd., S1000) following the manufacturer's instructions. Briefly, the right lung lobes were homogenized, and collagen was solubilized in 0.5 M acetic acid. Tissue extracts were incubated with Sirius red dye, and the absorbance was determined at 540 nm using a spectrophotometer. The amount of collagen was expressed relative to the wet weight of the tissues.
The lung tissues were fixed in paraformaldehyde and embedded in paraffin. The paraffin‐embedded blocks were sectioned at 4 μm and then mounted onto glass slides. After deparaffinization and rehydration, the slides were fixed with Bouin's solution (Sigma Aldrich, HT10132‐1L) for 1 h. Then, the slides were incubated with hematoxylin (Sigma Aldrich, MHS16‐500ML), Biebrich Scarlet (Sigma Aldrich, B‐6008) and acid fuchsin (Sigma Aldrich, A‐3908), phosphomolybdic (DAEJUNG, 6531‐4105) and phosphotungstic acid (DAEJUNG, 6539‐4105), aniline blue (DAEJUNG, 1087‐4125), and then 1% (v/v) acetic acid (DUKSAN, UN2789). After dehydration, the slides were mounted onto cover slips and scanned using slide scanner (3D HISTECH, Pannoramic MIDI). Fibrotic area of the images was quantified by using Image J plugin, color deconvolution 2.

O=C(CC1NCCCC1O)Cn1cnc2cc(Br)c(Cl)cc2c1=O (stereo not drawn) [HF, Halofuginone, reference compound]
Fraction bound, average (PARS1 WT; Dose 3.0518 nM): -0.0712
Fraction bound (PARS1 WT; Dose 3.0518 nM): -0.0993 and -0.0066 and -0.1077
Fraction bound, average (PARS1 WT; Dose 6.1035 nM): -0.0015
Fraction bound (PARS1 WT; Dose 6.1035 nM): 0.0287 and -0.0242 and -0.0091
Fraction bound, average (PARS1 WT; Dose 12.207 nM): 0.0765
Fraction bound (PARS1 WT; Dose 12.207 nM): 0.1266 and 0.0543 and 0.0485
Fraction bound, average (PARS1 WT; Dose 24.4141 nM): 0.1050
Fraction bound (PARS1 WT; Dose 24.4141 nM): 0.1952 and 0.1143 and 0.0054
Fraction bound, average (PARS1 WT; Dose 48.8281 nM): 0.1434
Fraction bound (PARS1 WT; Dose 48.8281 nM): 0.1825 and 0.1031 and 0.1448
Fraction bound, average (PARS1 WT; Dose 97.6563 nM): 0.2466
Fraction bound (PARS1 WT; Dose 97.6563 nM): 0.2751 and 0.2161 and 0.2485
Fraction bound, average (PARS1 WT; Dose 195.312 nM): 0.5229
Fraction bound (PARS1 WT; Dose 195.312 nM): 0.5425 and 0.5488 and 0.4774
Fraction bound, average (PARS1 WT; Dose 390.625 nM): 0.7387
Fraction bound (PARS1 WT; Dose 390.625 nM): 0.7958 and 0.7241 and 0.6962
Fraction bound, average (PARS1 WT; Dose 781.25 nM): 0.9030
Fraction bound (PARS1 WT; Dose 781.25 nM): 0.8890 and 0.8991 and 0.9209
Fraction bound, average (PARS1 WT; Dose 1562.5 nM): 0.9612
Fraction bound (PARS1 WT; Dose 1562.5 nM): 0.9380 and 1.0072 and 0.9382
Fraction bound, average (PARS1 WT; Dose 3125 nM): 0.9287
Fraction bound (PARS1 WT; Dose 3125 nM): 0.9278 and 0.9164 and 0.9420
Fraction bound, average (PARS1 WT; Dose 6250 nM): 0.9609
Fraction bound (PARS1 WT; Dose 6250 nM): 0.9251 and 0.9572 and 1.0004
Fraction bound, average (PARS1 WT; Dose 12500 nM): 0.9979
Fraction bound (PARS1 WT; Dose 12500 nM): 0.9525 and 1.0119 and 1.0291
Fraction bound, average (PARS1 WT; Dose 25000 nM): 1.0497
Fraction bound (PARS1 WT; Dose 25000 nM): 1.0026 and 1.0240 and 1.1224
Fraction bound, average (PARS1 WT; Dose 50000 nM): 0.9548
Fraction bound (PARS1 WT; Dose 50000 nM): 0.8756 and 0.9971 and 0.9917
Fraction bound, average (PARS1 WT; Dose 100000 nM): 1.0743
Fraction bound (PARS1 WT; Dose 100000 nM): 1.0331 and 1.0480 and 1.1418
SpO2 (C57BL/6 mice; 0.05 mg/kg oral once a day, 2 weeks (Figs 1E and EV4G)): did not show an improvement in SpO2
BALF total cell count, average (C57BL/6 mice; 0.05 mg/kg): 10.46 x105 cells
BALF total cell count, single animal (C57BL/6 mice; 0.05 mg/kg): 10 x105 cells and 12 x105 cells and 9.3 x105 cells and 11 x105 cells
Collagen contents, average (C57BL/6 mice; 0.05 mg/kg): 308.0 μg/right lung
Collagen contents, single animal (C57BL/6 mice; 0.05 mg/kg): 314 μg/right lung and 298 μg/right lung and 320 μg/right lung and 264 μg/right lung and 344 μg/right lung
Fibrotic area, average (C57BL/6 mice; 0.05 mg/kg): 275.3 % of control
Fibrotic area, single animal (C57BL/6 mice; 0.05 mg/kg): 303.9 % of control and 169.0 % of control and 380.1 % of control and 194.5 % of control and 329.1 % of control
SpO2, average (C57BL/6 mice; 0.05 mg/kg): 71.2%
SpO2, single animal (C57BL/6 mice; 0.05 mg/kg): 72% and 64% and 66% and 76% and 78%
BALF total cell count, average (C57BL/6 mice; 0.1 mg/kg): 7.38 x105 cells
BALF total cell count, single animal (C57BL/6 mice; 0.1 mg/kg): 7.2 x105 cells and 9 x105 cells and 5.1 x105 cells and 7.4 x105 cells and 8.2 x105 cells
Collagen contents, average (C57BL/6 mice; 0.1 mg/kg): 231.8 μg/right lung
Collagen contents, single animal (C57BL/6 mice; 0.1 mg/kg): 254 μg/right lung and 195 μg/right lung and 275 μg/right lung and 201 μg/right lung and 234 μg/right lung
Fibrotic area, average (C57BL/6 mice; 0.1 mg/kg): 171.2 % of control
Fibrotic area, single animal (C57BL/6 mice; 0.1 mg/kg): 180.4 % of control and 138.3 % of control and 115.6 % of control and 249.0 % of control and 172.5 % of control
SpO2, average (C57BL/6 mice; 0.1 mg/kg): 80.0%
SpO2, single animal (C57BL/6 mice; 0.1 mg/kg): 78% and 81% and 85% and 82% and 74%
collagen deposition, Masson's trichrome staining (C57BL/6 mice; lung tissue (Fig 1H and I)): decreased collagen deposition in the interstitial spaces
fibrotic properties (C57BL/6 mice; model 1, drug administration from day 7): significantly reduced fibrotic properties
